Reference: ChEMBL document CHEMBL1154563, “Flavonol-cinnamate cycloadducts and diamide derivatives from Aglaia laxiflora” (J Nat Prod, 2000)
Converted amounts (≈) assume the structure as drawn. The source made the active and inactive calls. The calls are words filed in the database; no cut-off is given here.

Tests used:
P388 = assay: Cytotoxicity against mouse P388 cells; assay type: functional, cell-based
MOLT-4 = assay: Cytotoxicity against human MOLT4 cells; assay type: functional, cell-based
WEHI-164 = assay: Cytotoxicity against mouse WEHI164 cells; assay type: functional, cell-based
[1] = Cytotoxicity against mouse LL/2 cells; assay type: functional, cell-based, Lewis lung carcinoma
Jurkat = assay: Cytotoxicity against human Jurkat cells; assay type: functional, cell-based

SMILES	Activity (P388)	Activity (MOLT-4)	further results
CC[C@@](C)(O)C(=O)N[C@@H]1CCCN1C(=O)[C@H]1[C@H](c2ccccc2)[C@]2(c3ccc(OC)cc3)Oc3cc(OC)cc(OC)c3[C@@]1(O)[C@H]2OC(C)=O	inactive	inactive	–
CC[C@@](C)(O)C(=O)N[C@@H]1CCCN1C(=O)[C@@H]1[C@@H](c2ccccc2)[C@@]2(O)c3c(OC)cc(OC)cc3O[C@]1(c1ccc(OC)cc1)[C@H]2OC(C)=O	inactive	inactive	–
COc1ccc([C@@]23Oc4cc(OC)cc(OC)c4[C@]2(O)[C@H](O)C[C@H]3c2ccccc2)cc1 [ROCAGLAOL]	–	–	IC50 (WEHI-164): 0.023 µg/mL (≈ 0.0529 µM); IC50 ([1]; Mus musculus, Lewis lung carcinoma, read-out: IC50): 0.034 µg/mL (≈ 0.0783 µM); IC50 (P388; Mus musculus, P388, read-out: IC50): < 0.01 µg/mL
CC[C@@](C)(O)C(=O)N[C@@H]1CCCN1C(=O)[C@@H]1[C@@H](c2ccccc2)[C@]2(c3ccc(OC)cc3)Oc3cc(OC)cc(OC)c3[C@@]1(O)[C@H]2OC(C)=O	inactive	inactive	–
COc1cc(OC)c2c(c1)O[C@@]1(c3ccc(OC)c(O[C@@H]4O[C@H](C)[C@@H](O)[C@H](OC)[C@@H]4OC(C)=O)c3)[C@H](c3ccccc3)C[C@@H](O)[C@@]21O	–	–	IC50 ([1]; lewis lung carcinoma): 0.0042 µg/mL (≈ 0.00643 µM); IC50 (P388; p388): 0.036 µg/mL (≈ 0.0552 µM); IC50 (Jurkat): 0.0022 µg/mL (≈ 0.00337 µM)
CC[C@@](C)(O)C(=O)N[C@@H]1CCCN1C(=O)[C@@H]1[C@@H](c2ccccc2)[C@@]2(O)c3c(OC)cc(OC)cc3O[C@]1(c1ccc(OC)cc1)[C@H]2O	inactive	inactive	–
